Source: patent publication US20220281848A1, “PYRAZOLE-SUBSTITUTED PYRROLIDINONES AS HERBICIDES” (FMC Corporation, priority 2019, published 2022)

Test system: plants
Assay: Test D post-emergence, other plants of Tables D2 and D4
Assay type: in vivo
Conditions: for STEME damage rating (100=total damage to plant; 0=no damage to plant) / VERPE damage rating (100=total damage to plant; 0=no damage to plant): "Cereals" Postemergent, evaluated after 15 d; for damage to plant (100=total damage to plant; 0=no damage to plant), ABUTH / damage to plant (100=total damage to plant; 0=no damage to plant), AMARE / damage to plant (100=total damage to plant; 0=no damage to plant), BIDPI / damage to plant (100=total damage to plant; 0=no damage to plant), BRAPL / damage to plant (100=total damage to plant; 0=no damage to plant), CYPES / damage to plant (100=total damage to plant; 0=no damage to plant), DIGSA / damage to plant (100=total damage to plant; 0=no damage to plant), ECHCG / damage to plant (100=total damage to plant; 0=no damage to plant), ELEIN / damage to plant (100=total damage to plant; 0=no damage to plant), EPHHL / damage to plant (100=total damage to plant; 0=no damage to plant), GLXMA / damage to plant (100=total damage to plant; 0=no damage to plant), IPOHE / damage to plant (100=total damage to plant; 0=no damage to plant), ORYSA / damage to plant (100=total damage to plant; 0=no damage to plant), PANMI / damage to plant (100=total damage to plant; 0=no damage to plant), SETFA / damage to plant (100=total damage to plant; 0=no damage to plant), SORVU: post-emergence
Procedure: A formulation containing 50 g/L of the test chemical was prepared by dissolving the active ingredient in a mixture of organic solvents and emulsifier, details of which are provided in the table. This formulation was then mixed with a small, variable amount of acetone to aid dissolution, before addition of a 0.2% v/v aqueous solution of an adjuvant, as the aqueous diluent, to form an aqueous spray solution which contains a predetermined concentration of the active ingredient.
This aqueous spray solution was then sprayed onto plants including maize and wheat that had been seed treated with a herbicide safener, after one day's cultivation (for pre-emergence) or after about 12 days' cultivation (for post-emergence). The plants were grown from seeds sown in standard soil, placed in a glasshouse under controlled conditions (at 24/18° C. or 20/16° C., day/night; 16 h light; 65% humidity). After spray application the plants were then grown in a glasshouse under the same conditions and watered twice daily. After 15 d for post-emergence and 20 DAA for pre-emergence the test was evaluated (100=total damage to plant; 0=no damage to plant).

CN1CC(c2cc(C(F)(F)F)n(C)n2)C(C(=O)Nc2ccc(F)c(F)c2F)C1=O (racemic) [Compound 17]
STEME damage rating (100=total damage to plant; 0=no damage to plant) (Rates 130): 0
STEME damage rating (100=total damage to plant; 0=no damage to plant) (Rates 250): 0
STEME damage rating (100=total damage to plant; 0=no damage to plant) (Rates 500): 30
VERPE damage rating (100=total damage to plant; 0=no damage to plant) (Rates 130): 30
VERPE damage rating (100=total damage to plant; 0=no damage to plant) (Rates 250): 70
VERPE damage rating (100=total damage to plant; 0=no damage to plant) (Rates 500): 60
damage to plant (100=total damage to plant; 0=no damage to plant), ABUTH (rate 130, evaluated after 15 d): 0
damage to plant (100=total damage to plant; 0=no damage to plant), ABUTH (rate 250, evaluated after 15 d): 0
damage to plant (100=total damage to plant; 0=no damage to plant), ABUTH (rate 500, evaluated after 15 d): 20
damage to plant (100=total damage to plant; 0=no damage to plant), AMARE (rate 250, evaluated after 15 d): 20
damage to plant (100=total damage to plant; 0=no damage to plant), AMARE (rate 500, evaluated after 15 d): 40
damage to plant (100=total damage to plant; 0=no damage to plant), BIDPI (rate 130, evaluated after 15 d): 0
damage to plant (100=total damage to plant; 0=no damage to plant), BIDPI (rate 250, evaluated after 15 d): 0
damage to plant (100=total damage to plant; 0=no damage to plant), BIDPI (rate 500, evaluated after 15 d): 0
damage to plant (100=total damage to plant; 0=no damage to plant), BRAPL (rate 130, evaluated after 15 d): 70
damage to plant (100=total damage to plant; 0=no damage to plant), BRAPL (rate 250, evaluated after 15 d): 80
damage to plant (100=total damage to plant; 0=no damage to plant), BRAPL (rate 500, evaluated after 15 d): 80
damage to plant (100=total damage to plant; 0=no damage to plant), CYPES (rate 130, evaluated after 15 d): 0
damage to plant (100=total damage to plant; 0=no damage to plant), CYPES (rate 250, evaluated after 15 d): 0
damage to plant (100=total damage to plant; 0=no damage to plant), CYPES (rate 500, evaluated after 15 d): 10
damage to plant (100=total damage to plant; 0=no damage to plant), DIGSA (rate 130, evaluated after 15 d): 70
damage to plant (100=total damage to plant; 0=no damage to plant), DIGSA (rate 250, evaluated after 15 d): 80
damage to plant (100=total damage to plant; 0=no damage to plant), DIGSA (rate 500, evaluated after 15 d): 80
damage to plant (100=total damage to plant; 0=no damage to plant), ECHCG (rate 130, evaluated after 15 d): 80
damage to plant (100=total damage to plant; 0=no damage to plant), ECHCG (rate 250, evaluated after 15 d): 80
damage to plant (100=total damage to plant; 0=no damage to plant), ECHCG (rate 500, evaluated after 15 d): 80
damage to plant (100=total damage to plant; 0=no damage to plant), ELEIN (rate 130, evaluated after 15 d): 0
damage to plant (100=total damage to plant; 0=no damage to plant), ELEIN (rate 250, evaluated after 15 d): 10
damage to plant (100=total damage to plant; 0=no damage to plant), ELEIN (rate 500, evaluated after 15 d): 20
damage to plant (100=total damage to plant; 0=no damage to plant), EPHHL (rate 130, evaluated after 15 d): 10
damage to plant (100=total damage to plant; 0=no damage to plant), EPHHL (rate 250, evaluated after 15 d): 20
damage to plant (100=total damage to plant; 0=no damage to plant), EPHHL (rate 500, evaluated after 15 d): 30
damage to plant (100=total damage to plant; 0=no damage to plant), GLXMA (rate 130, evaluated after 15 d): 0
damage to plant (100=total damage to plant; 0=no damage to plant), GLXMA (rate 250, evaluated after 15 d): 0
damage to plant (100=total damage to plant; 0=no damage to plant), GLXMA (rate 500, evaluated after 15 d): 10
damage to plant (100=total damage to plant; 0=no damage to plant), IPOHE (rate 130, evaluated after 15 d): 0
damage to plant (100=total damage to plant; 0=no damage to plant), IPOHE (rate 250, evaluated after 15 d): 0
damage to plant (100=total damage to plant; 0=no damage to plant), IPOHE (rate 500, evaluated after 15 d): 10
damage to plant (100=total damage to plant; 0=no damage to plant), ORYSA (rate 130, evaluated after 15 d): 0
damage to plant (100=total damage to plant; 0=no damage to plant), ORYSA (rate 250, evaluated after 15 d): 0
damage to plant (100=total damage to plant; 0=no damage to plant), ORYSA (rate 500, evaluated after 15 d): 10
damage to plant (100=total damage to plant; 0=no damage to plant), PANMI (rate 130, evaluated after 15 d): 0
damage to plant (100=total damage to plant; 0=no damage to plant), PANMI (rate 250, evaluated after 15 d): 0
damage to plant (100=total damage to plant; 0=no damage to plant), PANMI (rate 500, evaluated after 15 d): 0
damage to plant (100=total damage to plant; 0=no damage to plant), SETFA (rate 130, evaluated after 15 d): 60
damage to plant (100=total damage to plant; 0=no damage to plant), SETFA (rate 250, evaluated after 15 d): 70
damage to plant (100=total damage to plant; 0=no damage to plant), SETFA (rate 500, evaluated after 15 d): 70
damage to plant (100=total damage to plant; 0=no damage to plant), SORVU (rate 130, evaluated after 15 d): 0
damage to plant (100=total damage to plant; 0=no damage to plant), SORVU (rate 250, evaluated after 15 d): 0
damage to plant (100=total damage to plant; 0=no damage to plant), SORVU (rate 500, evaluated after 15 d): 0
